± gives the expanded uncertainty stated by the source.
Experiment: mn = molality of the nth substance listed, in mol/kg
Settings: Liquid; for viscosity: Capillary tube (Ostwald / Ubbelohde) method; for mass density: Constant-volume piezometry

O=S(=O)([O-])[O-].[Mg+2] [magnesium sulfate] + O
Settings	mass density [kg/m3]	viscosity [mPa·s]
308.15 K, 30000 kPa, m1 = 0.722	–	1.156 ± 0.019
308.15 K, 30000 kPa, m1 = 0.923	–	1.309 ± 0.021
308.15 K, 30000 kPa, m1 = 1.824	–	2.422 ± 0.039
308.15 K, 30000 kPa, m1 = 2.291	–	3.348 ± 0.054
308.15 K, 30000 kPa, m1 = 2.623	–	4.364 ± 0.07
308.6 K, 101 kPa, m1 = 0.261	1024.48 ± 0.63	–
310.15 K, 101 kPa, m1 = 2.224	1226.56 ± 0.75	–
310.15 K, 101 kPa, m1 = 2.535	1254.38 ± 0.77	–
314.98 K, 2157 kPa, m1 = 2.535	1252.7 ± 0.8	–
314.98 K, 8159 kPa, m1 = 2.535	1254.5 ± 0.8	–
314.98 K, 15690 kPa, m1 = 2.535	1256.7 ± 0.8	–
314.98 K, 25910 kPa, m1 = 2.535	1259.9 ± 0.9	–
314.98 K, 29800 kPa, m1 = 2.535	1261 ± 0.9	–
323.05 K, 2197 kPa, m1 = 2.224	1221.5 ± 0.8	–
323.05 K, 10120 kPa, m1 = 2.224	1224 ± 0.8	–
323.05 K, 19850 kPa, m1 = 2.224	1227 ± 0.8	–
323.05 K, 26300 kPa, m1 = 2.224	1229.1 ± 0.8	–
323.05 K, 30500 kPa, m1 = 2.224	1230.3 ± 0.9	–
323.15 K, 100 kPa, m1 = 0.085	–	0.5785 ± 0.0095
323.15 K, 100 kPa, m1 = 0.255	–	0.6403 ± 0.01
323.15 K, 100 kPa, m1 = 0.437	–	0.7163 ± 0.012
323.15 K, 100 kPa, m1 = 0.722	–	0.8612 ± 0.014
323.15 K, 100 kPa, m1 = 0.923	–	0.9738 ± 0.016
323.15 K, 100 kPa, m1 = 1.824	–	1.744 ± 0.028
323.15 K, 100 kPa, m1 = 2.291	–	2.373 ± 0.038
323.15 K, 100 kPa, m1 = 2.623	–	2.997 ± 0.048
323.15 K, 101 kPa, m1 = 0.084	998.05 ± 0.61	–
323.15 K, 101 kPa, m1 = 0.261	1018.3 ± 0.63	–
323.15 K, 101 kPa, m1 = 0.469	1041.45 ± 0.64	–
323.15 K, 101 kPa, m1 = 0.841	1082.67 ± 0.67	–
323.15 K, 10000 kPa, m1 = 0.085	–	0.5809 ± 0.0095
323.15 K, 10000 kPa, m1 = 0.255	–	0.6431 ± 0.01
323.15 K, 10000 kPa, m1 = 0.437	–	0.7198 ± 0.012
323.15 K, 10000 kPa, m1 = 0.722	–	0.8651 ± 0.014
323.15 K, 10000 kPa, m1 = 0.923	–	0.9781 ± 0.016
323.15 K, 10000 kPa, m1 = 1.824	–	1.751 ± 0.028
323.15 K, 10000 kPa, m1 = 2.291	–	2.382 ± 0.038
323.15 K, 10000 kPa, m1 = 2.623	–	3.009 ± 0.048
323.15 K, 30000 kPa, m1 = 0.085	–	0.5856 ± 0.0096
323.15 K, 30000 kPa, m1 = 0.255	–	0.648 ± 0.011
323.15 K, 30000 kPa, m1 = 0.437	–	0.7256 ± 0.012
323.15 K, 30000 kPa, m1 = 0.722	–	0.8714 ± 0.014
323.15 K, 30000 kPa, m1 = 0.923	–	0.9853 ± 0.016
323.15 K, 30000 kPa, m1 = 1.824	–	1.764 ± 0.028
323.15 K, 30000 kPa, m1 = 2.291	–	2.4 ± 0.039
323.15 K, 30000 kPa, m1 = 2.623	–	3.031 ± 0.049
324.35 K, 101 kPa, m1 = 2.224	1219.96 ± 0.75	–
324.35 K, 101 kPa, m1 = 2.535	1247.46 ± 0.77	–
340.25 K, 101 kPa, m1 = 2.224	1211.6 ± 0.75	–
340.25 K, 101 kPa, m1 = 2.535	1238.93 ± 0.77	–
348.13 K, 1549 kPa, m1 = 2.535	1235.1 ± 0.8	–
348.13 K, 9807 kPa, m1 = 2.535	1237.7 ± 0.8	–
348.13 K, 14220 kPa, m1 = 2.535	1238.9 ± 0.8	–
348.13 K, 23810 kPa, m1 = 2.535	1241.9 ± 0.9	–
348.13 K, 30020 kPa, m1 = 2.535	1243.8 ± 0.9	–
348.15 K, 100 kPa, m1 = 0.437	–	0.491 ± 0.0081

Reference: the NIST ThermoML archive (doi:10.1021/je0604481)
